Measurements published in paper PMC5974751, “NKp44-Derived Peptide Binds Proliferating Cell Nuclear Antigen and Mediates Tumor Cell Death” (Frontiers in Immunology, 2018).
Peptide text beside a SMILES is read from it.

Tests used:
[1] = test system: B16 melanoma tumor in C57BL/6 mice; experiment: In vivo B16 tumor growth; set-up: species or system mouse; conditions: R11-NLS-pep8 5 mg/kg IP, 5-FU 30 mg/kg IP, treatment stopped day 22
Description: Seven-week-old male C57BL/6 mice with an average body weight of 23 g were used in the other experiment. B16 cells suspended at a density of 0.5 × 10^6 cells/100 μl, in serum-free DMEM containing 40% Geltrex, were injected subcutaneously in the left dorsal flank, and allowed to develop tumors. After 6 days, mice were randomly divided into three groups, one group was treated with R11-NLS-pep8, at a dose of 5 mg/kg, intraperitoneally (IP), other group with 5-FU, at a dose of 30 mg/kg, (IP) and mice treated with a 1.44% DMSO/150 mM NaCl solution, (IP) served as the vehicle control. Treatment was done three times a week at least for 4 weeks. Each week, tumors size was evaluated by measuring their length (L) and width (W), using a Caliper device and tumor volume (V) was calculated according to the equation: V = LW^2/2. After 3 weeks of treatment, mice were euthanized, and tumors volume and weight were measured.
Figure 5 Effect of R11-NLS-pep8 on 4T1 and B16 in vivo tumor models. (A) 4T1 cells or (C) B16 cells were injected into the nipple pad or flank of young BALB/C females or C57BL/6 males, respectively (day 0). At day 5, mice were divided to subgroups according to mice weight. […] Tumor volume (mm^3) was measured at days as indicated on graphs mean tumor volume (mm^3), (B) 4T1 and (D) B16 were normalized to vehicle/day to show the effect of treatment on tumor volume per day. […]

[2] = test system: 4T1 breast cancer tumor in BALB/C mice; experiment: In vivo 4T1 tumor growth; set-up: species or system mouse; conditions: for tumor growth suppression vs vehicle, significance on days 19 and 23 / tumor growth suppression vs vehicle, significance on day 28: R11-NLS-pep8 5 mg/kg IV, 5-FU 30 mg/kg; for tumor growth suppression vs vehicle, significance on days 19 and 23: every 2 days, treatment stopped day 22, unpaired t-test, one-tail; for tumor growth suppression vs vehicle, significance on day 28: treatment stopped day 22
Description: Seven-week-old female BALB/C mice with an average body weight of 20 g were used in this experiment. 4T1 cells suspended at a density of 2 × 10^5 cells/50 μl, in serum-free DMEM containing 40% Geltrex, were injected into the left mammary fat pad, and allowed to develop tumors. After 5 days, mice were randomly divided into three groups, one group was treated with R11-NLS-pep8, at a dose of 5 mg/kg, intravenously (IV), other group with 5-FU, at a dose of 30 mg/kg, (IV) and mice treated with a 1.44% DMSO/150 mM NaCl solution, (IV) served as the vehicle control. Treatment was continued following every 2 days at least for 4 weeks. Each week, tumor size was evaluated by measuring their length (L) and width (W), using a Caliper device and tumor volume (V) was calculated according to the equation: V = LW^2/2. After 4 weeks of treatment, mice were euthanized, and tumors volume and weight were measured.
Figure 5 Effect of R11-NLS-pep8 on 4T1 and B16 in vivo tumor models. (A) 4T1 cells or (C) B16 cells were injected into the nipple pad or flank of young BALB/C females or C57BL/6 males, respectively (day 0). At day 5, mice were divided to subgroups according to mice weight. Treatment was started at day 5 (4T1) or day 6 (B16) and end at day 22. Treatment was administrated every 2 days three times per week; 5-FU was administered intraperitoneally (IP) while R11-NLS-pep8 was administrated intravenously (4T1) or IP (B16). Tumor volume (mm^3) was measured at days as indicated on graphs mean tumor volume (mm^3), (B) 4T1 and (D) B16 were normalized to vehicle/day to show the effect of treatment on tumor volume per day. Statistical analysis was performed on original tumor volume data. Unpaired t-test; one-tail, *p < 0.05.

[3] = test system: HepG2 hepatocellular carcinoma cells; experiment: PrestoBlue cell viability, HepG2; format: cell-based, human; conditions: 24 h, sigmoidal dose–response
Description: (§1) Target cells (2.5 × 10^4 cells/well of a 48-well plate, Corning) were seeded and incubated in 37°C, 5% CO2 for 24 h in 0.5 ml of fresh complete DMEM (10% FBS) culture medium. According to molecular weight peptides were diluted from 8 to 2 µM with 5% FBS containing DMEM culture medium just before the incubation with the target cells. Medium was removed from each well, and 250 µl of diluted peptides was added and incubated for another 24 h at 37°C, 5% CO2. PrestoBlue (A13261, Invitrogen™) solution was prepared by diluting the dye 10-fold with complete DMEM. Medium was discarded from each well, and 250 µl of PrestoBlue solution was added to each well, shake gently and incubated at 37°C for another 1 h. Emission at 560 nm was measured in Premium Quad4 Monochromators plate reader (Tecan). Normalization was done relative to the appropriate control (DMEM or DMSO) to calculate the percentage of viable cells in each group. Selenite (25 µM) was used as a positive control ([52], [53]).

[4] = Initial toxicity studies in mice; format: in vivo, mouse; conditions: 5 mg/kg every 2 days for 3 weeks; data not shown
Description: Initial toxicity studies have been performed with the 5 mg/kg dose injected into mice every 2 days for 3 weeks, and analysis of mouse weight and well-being was meticulously observed during this time. Also, livers, spleens, and lungs were harvested and weight.

[5] = test system: pep8–PCNA interaction (recombinant PCNA); experiment: ELISA-based inhibition of biotin-pep8 binding to PCNA; set-up: species or system human; conditions: inhibitor 25 µg/ml 1 h, then biotin-pep8 5 µg/ml 1 h, room temperature, O.D. 650 nm
Description: To determine the ability of APIM-based peptide to suppress NKp44-pep8 interaction with PCNA, ELISA plates were coated with recombinant PCNA followed by PBS–skim milk added as described earlier. Plates were then incubated with 25 µg/ml of R11-NLS-pep8 (positive control), R11-NLS-pep8short (negative control), and APIM for 1 h at room temperature followed by addition of biotin-pep8 (5 µg/ml) without washing for 1 h at room temperature. Biotin-pep8 binding to PCNA was detected using streptavidin conjugated HRP (1 h at 1:500 dilution 100 μl/well). Following washing, TMB (100 μl/well DAKO, S1599) was added. O.D. was read at 650 nm (Thermo Electron Corporation Multiskan Spectrum).

MDA-MB-231 cells = experiment: Flow cytometry based cell death assay (PI), MDA-MB-231; set-up: species or system human; conditions: MDA-MB-231, PI flow cytometry, 0–8 µM, 24 h
Description: (§2) Peptides were diluted before the incubation with the target cells with free DMEM culture medium to 0–16 µM according to peptide molecular weight. For adding the peptides, 0.5 ml was removed from each well, and 0.5 ml of diluted peptides was added to a final volume of 1 ml, 5% FCS, duplicates. Peptides were incubated with target cells for 24 h, and then the medium was collected, adherent cells were removed with trypsin–EDTA (0.5 ml, 3 min, BI: 03-052-1B), 1 ml of complete medium was added to each well, and the medium was collected (final volume 2.5 ml, on ice). For the cell death assay, samples were then centrifuged (1,300 rpm, 4°C, 5 min), the medium was removed, fresh 1 ml 10% FCS was added, and then 1 µl of 1 mg/ml PI was added to each sample and incubated (15 min, on ice) with the target cells. Before analyzing the samples, samples were centrifuged (1,300 rpm, 4°C, 5 min), the medium was removed, and fresh 0.2 ml FCAS buffer (PBS 1×, 20% FCS, 0.5% NaN3) was added. Samples were then read and analyzed using BD FACSCanto™ II and FlowJo®. APIM peptide and camptothecin (CPT) were used as positive controls ([38], [54]–[56]). Specific cell death was calculated as following: Y = 100*((sample cell death − basal cell death)/(100 − basal cell death)). Basal cell death = % of PI positive cells following incubation in complete culture media.

4T1 cells = experiment: Flow cytometry based cell death assay (PI), 4T1; set-up: species or system murine; conditions: 4T1, PI flow cytometry, 0–8 µM, 24 h
Description: as §2

B16 cells = experiment: Flow cytometry based cell death assay (PI), B16; set-up: species or system murine; conditions: 0–8 µM, 24 h
Description: as §2

B16 melanoma cells = experiment: PrestoBlue cell viability, B16; format: cell-based, murine; conditions: 24 h, sigmoidal dose–response
Description: as §1

[6] = test system: MDA-MB-231 breast adenocarcinoma cells; experiment: PrestoBlue cell viability, MDA-MB-231; format: cell-based, human; conditions: MDA-MB-231, PrestoBlue, 24 h; sigmoidal dose–response
Description: as §1

[7] = test system: PANC-1 pancreas ductal adenocarcinoma cells; experiment: PrestoBlue cell viability, PANC-1; format: cell-based, human; conditions: PANC-1, PrestoBlue, 24 h; sigmoidal dose–response
Description: as §1

| inhibition of pep8 binding to PCNA [5] | Compound | tumor growth suppression, day 23 [1] | tumor growth suppression vs vehicle, significance on days 19 and 23 [2] | tumor growth suppression vs vehicle, significance on day 28 [2] | ED50, cell viability [3] | mice weights and well-being [4] | organ weights (livers, spleens, lungs) at end of experiment [4] | ED50, cell death (MDA-MB-231 cells) | ED50, cell death (4T1 cells) | ED50, cell death (B16 cells) | ED50, cell viability (B16 melanoma cells) | ED50, cell viability [6] | ED50, cell viability [7] | growth suppression relative to 5-FU ([2]; R11-NLS-pep8 5 mg/kg IV vs 5-FU IP 30 mg/kg) |
| --- | --- | --- | --- | --- | --- | --- | --- | --- | --- | --- | --- | --- | --- | --- |
|  | O=c1[nH]cc(F)c(=O)[nH]1 [5-FU, reference compound] | significantly suppressed B16 growth | clear yet non-significant on days 19 and 23 | significant on day 28 |  |  |  |  |  |  |  |  |  |  |
| 35% | CC[C@H](C)[C@H](NC(=O)[C@H](CCCNC(=N)N)NC(=O)[C@H](CCCNC(=N)N)NC(=O)[C@H](CCCNC(=N)N)NC(=O)[C@H](CCCNC(=N)N)NC(=O)[C@H](CCCNC(=N)N)NC(=O)[C@H](CCCNC(=N)N)NC(=O)[C@H](CCCNC(=N)N)NC(=O)[C@H](CCCNC(=N)N)NC(=O)[C@H](CCCNC(=N)N)NC(=O)[C@H](CCCNC(=N)N)NC(=O)[C@H](CCCNC(=N)N)NC(C)=O)C(=O)N[C@@H](CCCCN)C(=O)N[C@@H](CCCCN)C(=O)N[C@@H](CCCCN)C(=O)N[C@@H](CCCNC(=N)N)C(=O)N[C@@H](CCCCN)C(=O)N[C@@H](Cc1c[nH]c2ccccc12)C(=O)N[C@@H](CCC(=O)O)C(=O)N[C@@H](C)C(=O)N[C@@H](CO)C(=O)N[C@@H](C)C(=O)N[C@@H](CC(C)C)C(=O)N[C@H](C(=O)N[C@@H](CS)C(=O)N[C@H](C(=O)N[C@@H](CCCNC(=N)N)C(=O)N[C@@H](CC(C)C)C(=O)N[C@H](C(=O)N[C@H](C(=O)N[C@@H](CO)C(=O)N[C@@H](CO)C(=O)N[C@@H](CCCCN)C(=O)N1CCC[C@H]1C(=O)N[C@@H](CCCNC(=N)N)C(=O)N[C@H](C(=O)N[C@H](C(=O)N[C@H](C)C(=O)O)C(C)C)[C@@H](C)O)[C@@H](C)O)C(C)C)[C@@H](C)CC)C(C)C [R11-NLS-pep8] (HELM PEPTIDE1{[ac].R.R.R.R.R.R.R.R.R.R.R.I.K.K.K.R.K.W.E.A.S.A.L.V.C.I.R.L.V.T.S.S.K.P.R.T.V.[dA]}$$$$V2.0; C-terminus assumed) | significantly suppressed B16 growth | statistically significant on days 19 and 23 | statistically non-significant difference | 5.9 µM | No significant changes were observed | No significant changes were observed | 4.07 µM | 3.78 µM | 3.94 µM | 7.1 µM | 5.6 µM | 7.8 µM | comparable to the effect of 5-FU |
